Source: patent US8791155B2, “Chroman derivatives” (Edison Pharmaceuticals, Inc., priority 2003, dated 2014)

Key:
Assay type in all cases: cell-based
[1] = system: dopaminergic neuronal cell line; test: High glutamate-induced oxidative stress assay (HGOS); details: Mus musculus; 30 mM glutamate, 16 hrs; read-out: EC50, protection against HGOS cell injury and cell death
Description: Protection against redox stress can be evaluated in cell culture using high glutamate induced oxidative stress (HGOS) in mouse dopaminergic cell lines. The cytotoxic effect of glutamate is not due to excitotoxicity, as this cell line is devoid of inotropic glutamate receptors. Rather, the glutamate-induced toxicity of dopaminergic cells is associated with an inhibition of cystine transport which subsequently leads to depletion of intracellular glutathione (GSH) levels (Murphy T. H., et al. Neuron 2, 1547-1558, 1989), activation of neuronal 12-lipoxygenase (Li, Y. et al., Neuron 19, 453-463, 1997), increased ROS production (Tan S. et al., J. Cell Biol. 141, 1423-1432, 1998) and elevated intracellular Cat^2+ (Li, Y. et al., see supra). Some molecules were measured for their ability to protect cells against glutamate-induced stress and the assay is detailed in Examples.
This procedure was used to induce high glutamate-induced oxidative stress (HGOS) in a dopaminergic neuronal cell line. Using this assay the potency and efficacy of test articles against HGOS neuronal cell injury and cell death was established in a high throughput manner.
• Dopaminergic neuronal cell lines • DMEM-No Glucose (Life Technologies Cat #11966-025) • L-glutamine (Life Technologies Cat #25030-081) • L-glutamic acid, monosodium salt (Sigma Cat #G5889) • D-glucose (Sigma Cat #G-6151) • 10×HBSS buffer (pH 7.4) (950 ml Pyrogen-free water, 2.44 g/L MgCl2.6H20, 3.73 g/L KCl, 59.58 g/L Hepes, 58.44 g/L NaCl, 1.36 g/L KH2PO4, 1.91 g/L CaCl2.2H2O and pH to […] with HCl) • Cell Tracker Green fluorescent dye (Molecular Probes, Cat #2925). Prepare a 5NM solution in pre-warmed HBSS just prior to use. • Sterile 96-well plates precoated with poly-D-lysine (Corning Catalog #3665) • 96-well deep well mother plate, DyNA Block 1000 (VWR Catalog #40002-008) Neuronal Cells
The cells were seeded into 96-well plates at a density of 2000 per well and left to grow for 72 hours in a 33° C. incubator with 5% CO2 in air atmosphere. The passage number of the cells for each assay experiment were no later than p11 in order to minimize experimental variation.
All compounds were dissolved in DMEM-No Glu containing 1 mM glucose, 30 mM glutamate and 1× Pen/Strep. DMEM-No Glu with 1 mM glucose and 1× P/S was used as the negative control, DMEM-No Glucose with 1 mM glucose, […] glutamate was used as a positive control and 100 NM Glutathione was added to the positive control as a standard. All of the procedures for this involving the making and dilution of compounds were performed using aseptic conditions and with minimal light.
The plates were removed from the incubator and examined under the microscope for morphological appearance and density. Using an aseptic technique and an 8-channel aspirator the media was carefully removed from the cells and replaced with 200 μI of 1×HBSS. This was done as quickly as possible to prevent the cells drying out. The plates were then placed in the humidified 37° C. incubators of the Biomek 2000 Side Loader. Four plates were washed at a time so as to minimize the time that the cells were sitting in 1×HBSS prior to addition of the compound test solution. Experimental Setup
The Beckman Biomek workstations were used to load the compounds and controls from the mother plates onto the cell plates that were prewashed with HBSS under sterile conditions. The plates were incubated in the upper HTS incubator at 37° C. in 5% CO2 for exactly 16 hrs. The following day, using the Beckman Biomek workstations, the plates were removed from the incubator. Using Cell Tracker Addition, the compounds were removed from the plates, washed once with […] of pre-warmed 1×HBSS and then 100 μL of 5 μM Cell Tracker Green was added to each well. The plates were incubated at 37° C. for 30 min to allow the dye to enter the cell and be cleaved by the esterases. […]

FRDA fibroblasts = test: FRDA fibroblast assay for protection from oxidative stress (BSO); details: Homo sapiens, preincubation 24 h before 1 mM BSO, read-out: EC50, reduced cell death in FRDA fibroblasts compared to untreated FRDA fibroblasts
Description: A cellular assay using FRDA-patient derived fibroblasts (as described by Jauslin, M L et al, Human Molecular Genetics 11; 3055-3063 (2002)); was used to determine the protective effects of the test compounds by analyzing survival of dermal fibroblasts taken from FRDA patients and unaffected normal donors under conditions of partial GSH depletion. Exposure of FRDA fibroblasts to BSO (L-buthionine (S,R)-sulfoximine) under conditions of restricted selenium causes depletion of cellular glutathione (GSH) and severe plasma membrane damage leading to cell death. Preincubation with the test compounds before the addition of BSO was used to determine if they could protect FRDA cells from BSO-mediated cell death.
Primary fibroblasts were derived from donors with a molecular diagnosis of FRDA and control donors with no mitochondria) disease. Lines F2, C2 and C3 were obtained from Coriell Cell Repositories (Camden, N.J., USA; catalog nos GM04078, GM 08402 and GM08399, respectively). All cell types were diagnosed at the molecular level for intronic GAA triplet repeat length in the frataxin gene using a PCR-based method, according to methods known in the art. […] The cells were seeded in 96-well plates at a density of 4000 cells per 100 pI in growth medium consisting of 25% (v/v) M199 EBS and 64% (v/v) MEM EBS without phenol red (Bioconcept, Allschwil, Switzerland) supplemented with 10% (v/v) fetal calf serum (PAA Laboratories, Linz, Austria), 100 U/ml penicillin, 100 μg/ml streptomycin (PAA Laboratories, Linz, Austria), 10 μg/ml insulin (Sigma, Buchs, Switzerland), 10 ng/ml EGF (Sigma, Buchs, Switzerland), 10 ng/ml bFGF (PreproTech, Rocky Hill, N.J., USA) and 2 mM glutamine (Sigma, Buchs, Switzerland). The cells were incubated in the presence of the various test compounds for 24 h before addition of 1 mM BSO (L-buthionine (S,R)-sulfoximine).
Cell viability was measured after the first signs of toxicity appeared in the BSO-treated controls (typically after 16-48 h). The cells were stained for 60 min at room temperature in PBS with 1.2 μm calceinAM and 4 pm ethidium homodimer (Live/Dead assay, Molecular Probes, Eugene, Oreg., USA). Fluorescence intensity was measured with a Gemini Spectramax XS spectrofluorimeter (Molecular Devices, Sunnyvale, Calif., USA) using excitation and emission wavelengths of 485 and 525 nm, respectively.

[2] = system: IL-1β release from a mouse microglial cell line; test: Interleukin-1β microglial cell assay (LPS / IFN gamma); details: LPS (10 μg/ml) and IFN gamma (10 ng/ml), 24 hours, read-out: EC50, inhibition of IL-1 beta induction
Description: This assay measures the release of IL-1β from a mouse microglial cell line following an inflammatory challenge with LPS and interferon-gamma. The ability of test articles to inhibit microglial cell activation and IL-1β release is determined by co-incubation of the test article with the inflammatory challenge.
Mouse microglial cells were seeded in poly-D-lysine coated 96-well plates at a density of 10,000 cells/well and allowed to attach for 24 hours. Cells were stimulated by addition of LPS (10 μg/ml) and IFN gamma (10 ng/ml) in the presence or absence of test article. The cells were then incubated for 24 hours at 37° C., after which time the media was removed and used for cytokine determination as described below.
Viability of mouse microglial cells after exposure to the test article was determined using a fluorescent viability dye, Cell Tracker Green. Cell Tracker Green was used at a working concentration of 5 μM in 1×HBSS. Cells were washed once with HBSS (200 μl/well) and 100 μl Cell Tracker Green was added to each well. Cells were then incubated at 37° C. for 30 minutes, after which time the Cell Tracker was removed and the cells were washed once with HBSS (200 μl/well). 100 pl fresh HBSS was added to each well and the plate was read on a Fluoroskan plate reader using an excitation wavelength of 485 nm and an emission wavelength of 538 nm.
1. […]
• The Costar EIA Hi-binding plate was coated with capture antibody at 4 μg/ml. […] Each well was filled to the top, dispensed, and any remaining buffer was removed by inverting the plate and gently blotting against clean paper towels. • Non-specific binding sites were blocked by adding 300 μl of Blocking Buffer to each well, and after sealing incubating for at least 1 hour at room temperature. • After washing the plate was now ready for the samples. […] 100 μl of this Substrate Solution mixture was added to each well and the plate was incubated in the dark for 20 minutes at room temperature. • 50 μl of Stop Solution was added to each well, mixing was ensured by gently tapping. • Each plate was read with the Spectramax once at 450 nm. […]

| SMILES | EC50 [1] [µM] | EC50 (FRDA fibroblasts) [µM] | EC50 [2] [µM] |
| --- | --- | --- | --- |
| CCCCCCSCc1c(O)c(C)c(C)c2c1CCC(C)(C)O2 [5-Hexylsulfanylmethyl-2,2,7,8-tetramethyl-chroman-6-ol] | < 5 | 0.01 to 6 | – |
| Cc1cc(C)nc(SCc2c(O)c(C)c(C)c3c2CCC(C)(C)O3)n1 [5-(4,6-Dimethyl-pyrimidin-2-ylsulfanylmethyl)-2,2,7,8-tetramethyl-chroman-6-ol] | < 5 | – | ≤ 20 |
| Cc1c(C)c2c(c(CSC3CCCC3)c1O)CCC(C)(C)O2 [5-Cyclopentylsulfanylmethyl-2,2,7,8-tetramethyl-chroman-6-ol] | < 5 | 0.01 to 6 | – |
| Cc1c(C)c2c(c(CSCC(C)C(=O)N3CCCC3C(=O)O)c1O)CCC(C)(CCCC(C)CCCC(C)CCCC(C)C)O2 (centres unmarked) [1-{3-[6-Hydroxy-2,7,8-trimethyl-2-(4,8,12-trimethyl-tridecyl)-chroman-5-ylmethylsulfanyl]-2-methyl-propionyl}-pyrrolidine-2-carboxylic acid] | < 5 | 0.01 to 6 | – |
